Consider 16 molecules from US20220380368A1, “SPIROCYCLIC ANDROGEN RECEPTOR PROTEIN DEGRADERS” (THE REGENTS OF THE UNIVERSITY OF MICHIGAN, priority 2019, published 2022).

The assay has as its target T1, AR protein (Homo sapiens, UniProt P10275).
T1 construct: endogenous in cells; host or cells: VCaP
T1 sequence (P10275 1-920): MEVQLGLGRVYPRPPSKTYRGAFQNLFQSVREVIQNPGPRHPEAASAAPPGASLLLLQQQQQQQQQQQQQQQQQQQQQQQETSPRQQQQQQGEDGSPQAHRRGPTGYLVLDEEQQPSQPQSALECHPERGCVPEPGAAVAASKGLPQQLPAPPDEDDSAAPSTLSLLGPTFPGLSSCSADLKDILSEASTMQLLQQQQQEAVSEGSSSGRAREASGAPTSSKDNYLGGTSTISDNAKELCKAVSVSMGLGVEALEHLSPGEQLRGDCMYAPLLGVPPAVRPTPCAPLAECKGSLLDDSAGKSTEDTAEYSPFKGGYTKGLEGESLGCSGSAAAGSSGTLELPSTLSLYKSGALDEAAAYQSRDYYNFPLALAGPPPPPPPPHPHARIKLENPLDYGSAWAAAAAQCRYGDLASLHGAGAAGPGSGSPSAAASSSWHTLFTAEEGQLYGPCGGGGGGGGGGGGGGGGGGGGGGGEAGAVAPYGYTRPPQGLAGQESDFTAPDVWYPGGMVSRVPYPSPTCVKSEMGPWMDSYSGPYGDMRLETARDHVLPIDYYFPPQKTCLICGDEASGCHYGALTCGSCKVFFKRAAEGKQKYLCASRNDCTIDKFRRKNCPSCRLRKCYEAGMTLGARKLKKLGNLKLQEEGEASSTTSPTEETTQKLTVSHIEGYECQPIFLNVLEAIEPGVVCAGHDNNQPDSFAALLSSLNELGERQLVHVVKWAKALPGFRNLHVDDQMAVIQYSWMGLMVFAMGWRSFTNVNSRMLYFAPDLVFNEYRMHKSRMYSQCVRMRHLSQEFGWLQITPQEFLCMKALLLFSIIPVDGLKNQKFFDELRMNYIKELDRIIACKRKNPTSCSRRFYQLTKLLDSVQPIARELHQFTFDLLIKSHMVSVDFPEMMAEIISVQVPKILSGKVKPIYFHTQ
The experiment in a line: Western blotting analysis of AR protein levels in VCaP cells, band quantification, DC50/DC90. Type of assay: cell-based. Conditions: VCaP cells, Table 6; read-out: VCaP DC50. As to the method: The appropriate cell line, e.g., prostate cancer LNCaP, Vcap, or 22RV1 cell line, was treated with Compounds of the Disclosure as indicated. The treated cells were lysed with RIPA buffer. […] GAPDH was used as a loading control.
Bands were quantified with ImageJ software. The relative numbers of each band obtained from normalization with its corresponding GAPDH level were compared with Prism 8 software. The DC50 values were produced from Prism 8, and the DC90 values were calculated with an equation=Bottom+(Top−Bottom)/(1+10^((Log EC50−X)*HillSlope) based on DC50 and Hillslope values.
A general note: A western blot detects proteins with antibodies after separation by electrophoresis.

As to `C[C@H]1CC2(CCN(c3ccc(C(=O)N4CCN(C5CCN(c6ccc7c(c6)C(=O)N(C6CCC(=O)NC6=O)C7=O)CC5)CC4)cc3F)CC2)CN1c1ccc(C#N)c(Cl)c1` (stereo partly drawn) [Cpd. No. 520, 2-chloro-4-((3S)-8-(4-(4-(1-(2-(2,6-dioxopiperidin-3-yl)-1,3-dioxoisoindolin-5-yl)piperidin-4-yl)piperazine-1-carbonyl)-2-fluorophenyl)-3-methyl-2,8-diazaspiro[4.5]decan-2-yl)benzonitrile], the DC50 was less than 1 nM.

Consider `C[C@H]1CC2(CCN(c3ncc(C(=O)N4CCN(C5CN(c6cc7c(cc6F)C(=O)N(C6CCC(=O)NC6=O)C7=O)C5)CC4)cn3)CC2)CN1c1ccc(C#N)c(Cl)c1` (stereo partly drawn) [Cpd. No. 523, 2-chloro-4-((3S)-8-(5-(4-(1-(2-(2,6-dioxopiperidin-3-yl)-6-fluoro-1,3-dioxoisoindolin-5-yl)azetidin-3-yl)piperazine-1-carbonyl)pyrimidin-2-yl)-3-methyl-2,8-diazaspiro[4.5]decan-2-yl)benzonitrile], for which the DC50 was less than 1 nM.

Regarding `C[C@H]1CC2(CCN(c3ncc(C(=O)N4CCN(C5CCN(c6cc7c(cc6F)C(=O)N(C6CCC(=O)NC6=O)C7=O)CC5)CC4)cn3)CC2)CN1c1ccc(C#N)c(Cl)c1` (stereo partly drawn) [Cpd. No. 524, 2-chloro-4-((3S)-8-(5-(4-(1-(2-(2,6-dioxopiperidin-3-yl)-6-fluoro-1,3-dioxoisoindolin-5-yl)piperidin-4-yl)piperazine-1-carbonyl)pyrimidin-2-yl)-3-methyl-2,8-diazaspiro[4.5]decan-2-yl)benzonitrile], the DC50 was less than 1 nM.

For the molecule `C[C@H]1CC2(CCN(c3ncc(C(=O)N4CCC(N5CCN(c6cc7c(cc6F)C(=O)N(C6CCC(=O)NC6=O)C7=O)CC5)CC4)cn3)CC2)CN1c1ccc(C#N)c(Cl)c1` (stereo partly drawn) [Cpd. No. 525, 2-chloro-4-((3S)-8-(5-(4-(4-(2-(2,6-dioxopiperidin-3-yl)-6-fluoro-1,3-dioxoisoindolin-5-yl)piperazin-1-yl)piperidine-1-carbonyl)pyrimidin-2-yl)-3-methyl-2,8-diazaspiro[4.5]decan-2-yl)benzonitrile], the DC50 was less than 1 nM.

`C[C@H]1CC2(CCN(c3ncc(C(=O)N4CCC(CN5Cc6cc7c(cc6C5)C(=O)N(C5CCC(=O)NC5=O)C7=O)CC4)cn3)CC2)CN1c1ccc(C#N)c(Cl)c1` (stereo partly drawn) [Cpd. No. 526, 2-chloro-4-((3S)-8-(5-(4-((6-(2,6-dioxopiperidin-3-yl)-5,7-dioxo-3,5,6,7-tetrahydropyrrolo[3,4-f]isoindol-2(1H)-yl)methyl)piperidine-1-carbonyl)pyrimidin-2-yl)-3-methyl-2,8-diazaspiro[4.5]decan-2-yl)benzonitrile]: the DC50 is less than 1 nM.

Consider `C[C@H]1CC2(CCN(c3ccc(C(=O)N4CCC(CN5Cc6cc7c(cc6C5)C(=O)N(C5CCC(=O)NC5=O)C7=O)CC4)cc3F)CC2)CN1c1ccc(C#N)c(Cl)c1` (stereo partly drawn) [Cpd. No. 527, 2-chloro-4-((3S)-8-(4-(4-((6-(2,6-dioxopiperidin-3-yl)-5,7-dioxo-3,5,6,7-tetrahydropyrrolo[3,4-f]isoindol-2(1H)-yl)methyl)piperidine-1-carbonyl)-2-fluorophenyl)-3-methyl-2,8-diazaspiro[4.5]decan-2-yl)benzonitrile], for which the DC50 was less than 1 nM.

In the case of `C[C@H]1CC2(CCN(c3ccc(C(=O)N4CCN(C5CN(c6cc7c(cc6F)C(=O)N(C6CCC(=O)NC6=O)C7=O)C5)CC4)c(F)c3)CC2)CN1c1ccc(C#N)c(Cl)c1` (stereo partly drawn) [Cpd. No. 530, 2-chloro-4-((3S)-8-(4-(4-(1-(2-(2,6-dioxopiperidin-3-yl)-6-fluoro-1,3-dioxoisoindolin-5-yl)azetidin-3-yl)piperazine-1-carbonyl)-3-fluorophenyl)-3-methyl-2,8-diazaspiro[4.5]decan-2-yl)benzonitrile], the DC50 was less than 1 nM.

As to `C[C@H]1CC2(CCN(c3ccc(C(=O)N4CCN(CC5CN(c6cc7c(cc6F)C(=O)N(C6CCC(=O)NC6=O)C7=O)C5)CC4)c(F)c3)CC2)CN1c1ccc(C#N)c(Cl)c1` (stereo partly drawn) [Cpd. No. 531, 2-chloro-4-((3S)-8-(4-(4-((1-(2-(2,6-dioxopiperidin-3-yl)-6-fluoro-1,3-dioxoisoindolin-5-yl)azetidin-3-yl)methyl)piperazine-1-carbonyl)-3-fluorophenyl)-3-methyl-2,8-diazaspiro[4.5]decan-2-yl)benzonitrile], the DC50 lay in the range of 1 to 10 nM.

On to `C[C@H]1CC2(CCN(c3ccc(C(=O)N4CCN(C5CN(c6cc7c(cc6F)C(=O)N(C6CCC(=O)NC6=O)C7=O)C5)CC4)cc3F)CC2)CN1c1ccc(C#N)c(Cl)c1` (stereo partly drawn) [Cpd. No. 532, 2-chloro-4-((3S)-8-(4-(4-(1-(2-(2,6-dioxopiperidin-3-yl)-6-fluoro-1,3-dioxoisoindolin-5-yl)azetidin-3-yl)piperazine-1-carbonyl)-2-fluorophenyl)-3-methyl-2,8-diazaspiro[4.5]decan-2-yl)benzonitrile], for which the DC50 is less than 1 nM.

`C[C@H]1CC2(CCN(c3ccc(C(=O)N4CCN(CC5CN(c6cc7c(cc6F)C(=O)N(C6CCC(=O)NC6=O)C7=O)C5)CC4)cc3F)CC2)CN1c1ccc(C#N)c(Cl)c1` (stereo partly drawn) [Cpd. No. 533, 2-chloro-4-((3S)-8-(4-(4-((1-(2-(2,6-dioxopiperidin-3-yl)-6-fluoro-1,3-dioxoisoindolin-5-yl)azetidin-3-yl)methyl)piperazine-1-carbonyl)-2-fluorophenyl)-3-methyl-2,8-diazaspiro[4.5]decan-2-yl)benzonitrile]: the DC50 is less than 1 nM.

As for `C[C@H]1CC2(CCN(c3ccc(C(=O)N4CCC(CN5Cc6cc7c(cc6C5)C(=O)N(C5CCC(=O)NC5=O)C7=O)CC4)c(F)c3)CC2)CN1c1ccc(C#N)c(Cl)c1` (stereo partly drawn) [Cpd. No. 534, 2-chloro-4-((3S)-8-(4-(4-((6-(2,6-dioxopiperidin-3-yl)-5,7-dioxo-3,5,6,7-tetrahydropyrrolo[3,4-f]isoindol-2(1H)-yl)methyl)piperidine-1-carbonyl)-3-fluorophenyl)-3-methyl-2,8-diazaspiro[4.5]decan-2-yl)benzonitrile], the DC50 was less than 1 nM.

Take `C[C@H]1CC2(CCN(c3ccc(C(=O)N4CCN(CC5CN(c6ccc7c(c6)C(=O)N(C6CCC(=O)NC6=O)C7=O)C5)CC4)cc3)CC2)CN1c1ccc(C#N)c(Cl)c1` (stereo partly drawn) [Cpd. No. 535, 2-chloro-4-((3S)-8-(4-(4-((1-(2-(2,6-dioxopiperidin-3-yl)-1,3-dioxoisoindolin-5-yl)azetidin-3-yl)methyl)piperazine-1-carbonyl)phenyl)-3-methyl-2,8-diazaspiro[4.5]decan-2-yl)benzonitrile]: the DC50 was less than 1 nM.

For the molecule `C[C@H]1CC2(CCN(c3ccc(C(=O)N4CCN(C5CN(c6cc7c(cc6F)C(=O)N(C6CCC(=O)NC6=O)C7=O)C5)CC4)nn3)CC2)CN1c1ccc(C#N)c(Cl)c1` (stereo partly drawn) [Cpd. No. 536, 2-chloro-4-((3S)-8-(6-(4-(1-(2-(2,6-dioxopiperidin-3-yl)-6-fluoro-1,3-dioxoisoindolin-5-yl)azetidin-3-yl)piperazine-1-carbonyl)pyridazin-3-yl)-3-methyl-2,8-diazaspiro[4.5]decan-2-yl)benzonitrile], the DC50 is less than 1 nM.

Take `C[C@H]1CC2(CCN(c3ccc(C(=O)N4CC(N5CCN(c6cc7c(cc6F)C(=O)N(C6CCC(=O)NC6=O)C7=O)CC5)C4)nn3)CC2)CN1c1ccc(C#N)c(Cl)c1` (stereo partly drawn) [Cpd. No. 537, 2-chloro-4-((3S)-8-(6-(3-(4-(2-(2,6-dioxopiperidin-3-yl)-6-fluoro-1,3-dioxoisoindolin-5-yl)piperazin-1-yl)azetidine-1-carbonyl)pyridazin-3-yl)-3-methyl-2,8-diazaspiro[4.5]decan-2-yl)benzonitrile]: the DC50 was 1 to 10 nM.

On to `C[C@H]1CC2(CCN(c3ccc(C(=O)N4CC(N5CCN(c6cc7c(cc6F)C(=O)N(C6CCC(=O)NC6=O)C7=O)CC5)C4)nc3)CC2)CN1c1ccc(C#N)c(Cl)c1` (stereo partly drawn) [Cpd. No. 538, 2-chloro-4-((3S)-8-(6-(3-(4-(2-(2,6-dioxopiperidin-3-yl)-6-fluoro-1,3-dioxoisoindolin-5-yl)piperazin-1-yl)azetidine-1-carbonyl)pyridin-3-yl)-3-methyl-2,8-diazaspiro[4.5]decan-2-yl)benzonitrile], for which the DC50 fell in the range of 1 to 10 nM.

Consider `C[C@H]1CC2(CCN(c3ccc(C(=O)N4CC(N5CCN(c6cc7c(cc6F)C(=O)N(C6CCC(=O)NC6=O)C7=O)CC5)C4)cn3)CC2)CN1c1ccc(C#N)c(Cl)c1` (stereo partly drawn) [Cpd. No. 539, 2-chloro-4-((3S)-8-(5-(3-(4-(2-(2,6-dioxopiperidin-3-yl)-6-fluoro-1,3-dioxoisoindolin-5-yl)piperazin-1-yl)azetidine-1-carbonyl)pyridin-2-yl)-3-methyl-2,8-diazaspiro[4.5]decan-2-yl)benzonitrile], for which the DC50 was 1 to 10 nM.
